These results are taken from patent US9801878B2, “Quinoline derivatives as PDE10A enzyme inhibitors” (H. Lundbeck A/S, priority 2011, dated 2017).

The target of assay [1] is PDE10A enzyme (Homo sapiens (Human), UniProt Q9Y233). Kind of assay: PDE10A inhibition assay. It is filed as biochemical. On the procedure:
Active PDE10A enzyme is prepared in a number of ways for use in PDE assays (Loughney, K. et al. Gene 1999, 234, 109-117; Fujishige, K. et al. Eur J Biochem. 1999, 266, 1118-1127 and Soderling, S. et al. Proc. Natl. Acad. Sci. 1999, 96, 7071-7076). PDE10A can be expressed as full-length proteins or as truncated proteins, as long as they express the catalytic domain. PDE10A can be prepared in different cell types, for example insect cells or E. coli. […]
A PDE10A assay may for example, be performed as follows: The assay is performed in 60 uL samples containing a fixed amount of the relevant PDE enzyme (sufficient to convert 20-25% of the cyclic nucleotide substrate), a buffer (50 mM HEPES7.6; 10 mM MgCl2; 0.02% Tween20), 0.1 mg/ml BSA, 225 pCi of ^3H-labelled cyclic nucleotide substrate, tritium labeled cAMP to a final concentration of 5 nM and varying amounts of inhibitors. […] The beads are allowed to settle for one hr in the dark before the plates are counted in a Wallac 1450 Microbeta counter. The measured signal can be converted to activity relative to an uninhibited control (100%) and IC50 values can be calculated using the Xlfit extension to EXCEL.

For assay [2] the following is noted: rats; cited from earlier work.
For assay [3] the following is noted: rats, cited from earlier work.
The conditions of assay [4]: rats; cited from earlier work. This is another data set of the same source.

PDE10A enzyme, sequence (Q9Y233 716-1055): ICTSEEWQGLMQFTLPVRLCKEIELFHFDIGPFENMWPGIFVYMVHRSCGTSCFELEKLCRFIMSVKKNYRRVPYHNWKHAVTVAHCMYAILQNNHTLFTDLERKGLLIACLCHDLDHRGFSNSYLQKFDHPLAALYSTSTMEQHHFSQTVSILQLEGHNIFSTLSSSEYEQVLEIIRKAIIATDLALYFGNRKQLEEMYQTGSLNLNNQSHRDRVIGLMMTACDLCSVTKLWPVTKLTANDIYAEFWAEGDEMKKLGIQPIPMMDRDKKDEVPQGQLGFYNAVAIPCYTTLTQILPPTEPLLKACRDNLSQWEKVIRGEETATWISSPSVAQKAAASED

As to `Cc1ncc(C)n2nc(CCc3ccc4ccccc4n3)nc12` [2-[2-(5,8-Dimethyl-[1,2,4]triazolo[1,5-a]pyrazin-2-yl)-ethyl]-quinoline], the IC50 (as a rule, the midpoint of a concentration-inhibition curve) in assay [1] stood at 7.4 nM.
As to `COc1ccc(Cc2nccc3cc(OC)c(OC)cc23)cc1OC` [Papaverine], in assay [2], the “reduction of amphetamine induced hyperactivity” value is “insignificant”. The “catalepsy on its own” value in assay [3] (alone) was “did not cause catalepsy on its own”. Further, in assay [3] (with haloperidol), the “cataleptic effect of the D2 receptor antagonist haloperidol” value is recorded as “potentiated the cataleptic effect”. Further, the “hyperactivity induced by PCP” value in assay [4] is “reduced hyperactivity”.
